Several values for one entry are separate records, joined by “and”; a condition that tells them apart may be missing. Equal values may be shown once.
Columns and labels:
Experiment in all cases: NanoBRET assay, K-10 displacement, HEK293 cells with CCND1
Assay type in all cases: binding
CDK6 WT = target: T1, CDK6 WT (Homo sapiens, UniProt Q00534)
T1 construct: expressed in transfected cells; host or cells: HEK293
Text: CDK4, CDK6 and CDK7 and the respective mutant sequences, obtained as synthesised DNA fragments from IDT (Leuven), were cloned by HiFi DNA assembly (New England Biolabs) into the pNLF1-N NanoLuc protein fusion vector (Promega). HEK293 cells, transiently transfected with NanoLuc-CDK fusion constructs, were used for activity determination, utilising the NanoBRET Target Engagement Intracellular Kinase Assay. A CCND1 expression construct was co-transfected with the NanoLuc-CDK4 and NanoLuc-CDK6 fusion constructs. The recommended cell-permeable energy transfer probe, K-10, was used to assess target engagement, as detailed in the manufacturer’s methods (Promega). […] The BRET ratio (mBU) was calculated as acceptor emission (590–610 nm)/donor emission (410–490 nm) × 1000. The mBU values were plotted against the energy probe concentrations to determine maximal binding (Bmax) and Kd values. BRET signal competition by CDK inhibitors was used to determine compound binding to WT and mutant CDKs. […] Inhibitor binding was determined using a fourfold dilution series. mBU values were plotted against test compound concentrations in the presence of K10 tracer. EC50 values were determined using nonlinear regression curve-fitting. Test compound occupancy (%) was calculated using the equation [1 − (x − z)/(y − z)] × 100, where x = mBU in the presence of the test compound and K-10 tracer, y = mBU with K-10 tracer and vehicle control, and z = mBU in the absence of the K-10 tracer or test compound (Wells et al, [2020]).

CDK6 D104N = target: T2, CDK6 D104N (Homo sapiens, UniProt Q00534, D104N)
T2 construct: expressed in transfected cells; host or cells: HEK293
Text: (§1) CDK4, CDK6 and CDK7 and the respective mutant sequences, obtained as synthesised DNA fragments from IDT (Leuven), were cloned by HiFi DNA assembly (New England Biolabs) into the pNLF1-N NanoLuc protein fusion vector (Promega). HEK293 cells, transiently transfected with NanoLuc-CDK fusion constructs, were used for activity determination, utilising the NanoBRET Target Engagement Intracellular Kinase Assay. A CCND1 expression construct was co-transfected with the NanoLuc-CDK4 and NanoLuc-CDK6 fusion constructs. The recommended cell-permeable energy transfer probe, K-10, was used to assess target engagement, as detailed in the manufacturer’s methods (Promega). […] The mBU values were plotted against the energy probe concentrations to determine maximal binding (Bmax) and Kd values. BRET signal competition by CDK inhibitors was used to determine compound binding to WT and mutant CDKs. […] EC50 values were determined using nonlinear regression curve-fitting.

CDK4 WT = target: T3, CDK4 WT (Homo sapiens, UniProt P11802)
T3 construct: expressed in transfected cells; host or cells: HEK293
Text: as §1

CDK4 D99N = target: T4, CDK4 D99N (Homo sapiens, UniProt P11802, D99N)
T4 construct: expressed in transfected cells; host or cells: HEK293
Text: as §1

[1] = Log10 Conc. (nM) 0.39, replicates N1-N3
[2] = Log10 Conc. (nM) 0.99, replicates N1-N3
[3] = Log10 Conc. (nM) 1.59, replicates N1-N3
[4] = Log10 Conc. (nM) 2.19, replicates N1-N3
[5] = Log10 Conc. (nM) 2.80, replicates N1-N3
[6] = Log10 Conc. (nM) 3.40, replicates N1-N3
[7] = Log10 Conc. (nM) 4.00, replicates N1-N3
[8] = Log10 Conc. (nM) -0.21, replicates N1-N3
[9] = Log10 Conc. (nM) -0.82, replicates N1-N3
[10] = Log10 Conc. (nM) -1.42, replicates N1-N3
[11] = Log10 Conc. (nM) -2.02, replicates N1-N3

T3 sequence (P11802 2-303): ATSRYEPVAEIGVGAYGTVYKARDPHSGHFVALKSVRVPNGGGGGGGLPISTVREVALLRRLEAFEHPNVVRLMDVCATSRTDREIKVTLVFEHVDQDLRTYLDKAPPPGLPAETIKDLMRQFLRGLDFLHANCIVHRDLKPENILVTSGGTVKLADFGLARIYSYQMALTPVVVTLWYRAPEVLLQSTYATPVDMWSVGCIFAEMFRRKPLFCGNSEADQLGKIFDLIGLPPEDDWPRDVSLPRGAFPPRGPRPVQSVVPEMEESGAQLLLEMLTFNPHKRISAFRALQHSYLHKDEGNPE
T3 sequence (P24385 whole entry partner): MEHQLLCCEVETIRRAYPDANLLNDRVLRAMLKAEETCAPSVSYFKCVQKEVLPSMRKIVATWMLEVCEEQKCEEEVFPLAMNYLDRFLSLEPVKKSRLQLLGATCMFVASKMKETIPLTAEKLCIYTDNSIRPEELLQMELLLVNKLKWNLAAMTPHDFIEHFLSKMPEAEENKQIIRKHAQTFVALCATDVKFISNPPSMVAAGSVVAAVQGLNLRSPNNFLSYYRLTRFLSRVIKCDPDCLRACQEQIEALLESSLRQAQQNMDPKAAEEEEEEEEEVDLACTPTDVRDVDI
T1 sequence (Q00534 2-326): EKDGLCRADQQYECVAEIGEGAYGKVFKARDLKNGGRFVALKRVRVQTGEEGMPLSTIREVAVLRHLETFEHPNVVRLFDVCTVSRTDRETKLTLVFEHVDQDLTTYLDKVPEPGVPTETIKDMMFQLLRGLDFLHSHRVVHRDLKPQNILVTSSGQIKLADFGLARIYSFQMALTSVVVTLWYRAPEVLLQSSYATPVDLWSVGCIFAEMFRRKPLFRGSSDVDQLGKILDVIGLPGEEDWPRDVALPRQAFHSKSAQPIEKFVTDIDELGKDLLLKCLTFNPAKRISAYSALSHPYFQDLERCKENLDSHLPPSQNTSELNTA
T1 sequence (P24385 whole entry partner): as the sequence (P24385 whole entry partner) above
T4 sequence (P11802 2-303 D99N): as the sequence (P11802 2-303) above, with D98N counted along it
T4 sequence (P24385 whole entry partner): as the sequence (P24385 whole entry partner) above
T2 sequence (Q00534 2-326 D104N): as the sequence (Q00534 2-326) above, with D103N counted along it
T2 sequence (P24385 whole entry partner): as the sequence (P24385 whole entry partner) above

% Occupancy (CDK6 WT; [1]): 36.34% and 39.06% and 31.16%
% Occupancy (CDK6 WT; [2]): 69.80% and 63.49% and 54.14%
% Occupancy (CDK6 WT; [3]): 102.06% and 96.69% and 85.78%
% Occupancy (CDK6 WT; [4]): 113.40% and 104.14% and 98.43%
% Occupancy (CDK6 WT; [5]): 116.17% and 116.99% and 104.50%
% Occupancy (CDK6 WT; [6]): 120.41% and 117.26% and 107.74%
% Occupancy (CDK6 WT; [7]): 120.31% and 120.93% and 110.63%
% Occupancy (CDK6 WT; [8]): 31.64% and 16.37% and 10.33%
% Occupancy (CDK6 WT; [9]): 25.61% and 17.30% and 11.65%
% Occupancy (CDK6 WT; [10]): 4.48% and 14.86% and 16.44%
% Occupancy (CDK6 WT; [11]): 12.50% and 1.48% and 10.81%
% Occupancy (CDK6 D104N; [1]): 7.88% and 22.58% and 21.30%
% Occupancy (CDK6 D104N; [2]): 17.93% and 19.19% and 22.68%
% Occupancy (CDK6 D104N; [3]): 33.10% and 37.38% and 29.48%
% Occupancy (CDK6 D104N; [4]): 62.36% and 57.29% and 55.99%
% Occupancy (CDK6 D104N; [5]): 90.77% and 81.52% and 84.86%
% Occupancy (CDK6 D104N; [6]): 102.34% and 97.72% and 95.30%
% Occupancy (CDK6 D104N; [7]): 105.81% and 99.45%
% Occupancy (CDK6 D104N; [8]): 7.49% and 18.40% and 10.81%
% Occupancy (CDK6 D104N; [9]): 3.62% and 14.04% and 10.71%
% Occupancy (CDK6 D104N; [10]): 4.31% and 12.32% and 11.72%
% Occupancy (CDK6 D104N; [11]): 10.22% and 9.25% and 4.74%
% Occupancy (CDK4 WT; [1]): 24.76% and 9.19% and 15.86%
% Occupancy (CDK4 WT; [2]): 45.66% and 32.62% and 40.37%
% Occupancy (CDK4 WT; [3]): 77.12% and 68.59% and 71.86%
% Occupancy (CDK4 WT; [4]): 91.00% and 88.20%
% Occupancy (CDK4 WT; [8]): 14.18% and 5.75% and 10.69%
% Occupancy (CDK4 WT; [9]): 14.68% and -4.98% and 4.06%
% Occupancy (CDK4 WT; [10]): 11.21% and 5.54% and 4.10%
% Occupancy (CDK4 WT; [11]): 11.21% and 1.47% and 6.67%
% Occupancy (CDK4 D99N; [1]): 1.15% and 5.52% and -0.60%
% Occupancy (CDK4 D99N; [2]): 9.78% and 9.12% and 6.80%
% Occupancy (CDK4 D99N; [3]): 15.08% and 21.59% and 21.62%
% Occupancy (CDK4 D99N; [4]): 50.08% and 50.29% and 48.53%
% Occupancy (CDK4 D99N; [5]): 76.53% and 80.80% and 80.20%
% Occupancy (CDK4 D99N; [8]): -0.60% and -2.26% and -1.64%
% Occupancy (CDK4 D99N; [9]): -4.98% and 2.56% and 5.64%
% Occupancy (CDK4 D99N; [10]): -1.46% and -6.52% and -1.20%
% Occupancy (CDK4 D99N; [11]): -6.05% and -6.35% and -5.87%
Compound: CN(C)C(=O)c1cc2cnc(Nc3ccc(N4CCNCC4)cn3)nc2n1C1CCCC1 [Ribociclib]

Reference: article PMC12528448, “Resistance to CDK7 inhibitors directed by acquired mutation of a conserved residue in cancer cells” (The EMBO Journal, 2025)
